# Results as given in patent publication US7566712B2, “Biaryl piperazinyl-pyridine analogues” (Neurogen Corporation, priority 2003, dated 2009).
# Biological target: T1, human capsaicin receptor (Homo sapiens, UniProt Q8NER1)
# T1 construct: pBK-CMV expression construct encoding the full length human capsaicin receptor; expressed in transfected cells
# Assay: Calcium mobilization assay, determination of antagonist activity (Example 6)
# Assay type: cell-based
# Conditions: Table II; IC50 determined as described in Example 6
# In short: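 HEK293 clonal lines stably expressing full-length human capsaicin receptor, loaded with Fluo-3 AM in KRH buffer pH 7.4, 1–2 h at 37 °C. Compounds (1–5 μM final) preincubated 0.5–6 h at room temperature, then capsaicin at its EC50 added. FLIPR/Fluoroskan calcium signal; IC50 as 50% decrease of capsaicin response.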
# T1 sequence (Q8NER1 whole entry): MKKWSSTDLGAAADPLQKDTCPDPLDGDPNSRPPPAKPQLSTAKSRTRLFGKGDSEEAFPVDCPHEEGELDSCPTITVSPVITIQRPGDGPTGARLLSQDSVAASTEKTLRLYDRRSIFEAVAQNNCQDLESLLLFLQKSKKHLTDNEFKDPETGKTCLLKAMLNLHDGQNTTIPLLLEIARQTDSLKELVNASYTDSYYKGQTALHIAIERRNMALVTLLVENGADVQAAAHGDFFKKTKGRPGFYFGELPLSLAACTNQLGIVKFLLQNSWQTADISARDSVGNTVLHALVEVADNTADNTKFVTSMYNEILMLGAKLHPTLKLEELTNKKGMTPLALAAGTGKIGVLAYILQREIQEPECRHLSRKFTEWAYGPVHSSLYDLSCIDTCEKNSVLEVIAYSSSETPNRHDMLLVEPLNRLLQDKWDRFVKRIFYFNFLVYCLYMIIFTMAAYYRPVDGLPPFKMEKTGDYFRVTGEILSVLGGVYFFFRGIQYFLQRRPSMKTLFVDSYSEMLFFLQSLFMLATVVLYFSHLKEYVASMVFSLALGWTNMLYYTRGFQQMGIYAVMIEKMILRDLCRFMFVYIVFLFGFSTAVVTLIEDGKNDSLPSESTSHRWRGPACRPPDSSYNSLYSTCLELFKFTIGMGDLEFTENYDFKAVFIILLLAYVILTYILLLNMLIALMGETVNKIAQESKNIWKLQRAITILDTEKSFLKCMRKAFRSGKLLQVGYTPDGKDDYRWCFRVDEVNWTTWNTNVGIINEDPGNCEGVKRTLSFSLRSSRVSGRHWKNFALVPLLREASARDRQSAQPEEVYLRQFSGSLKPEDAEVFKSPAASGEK
row,Compound,IC50
1,"CCc1ccc(-c2cc(N3CCN(c4ncccc4C#N)C[C@H]3C)nc(N3CCOCC3)n2)cc1 [Example 509, 2-{(3R)-4-[6-(4-ethylphenyl)-2-morpholin-4-ylpyrimidin-4-yl]-3-methylpiperazin-1-yl}nicotinonitrile]",≤ 1000 nM
2,"Cc1cccnc1N1CCN(c2cc(-c3cccc(Cl)c3)nc(N3CCOCC3)n2)[C@H](C)C1 [Example 480, 4-{4-(3-chlorophenyl)-6-[(2R)-2-methyl-4-(3-methylpyridin-2-yl)piperazin-1-yl]pyrimidin-2-yl}morpholine]",≤ 1000 nM
3,"Fc1ccc(-c2nc(N3CCOCC3)nc(N3CCN(c4ncccc4C(F)(F)F)CC3)n2)cc1Cl [Example 426, 2-(3-chioro-4-fluorophenyl)-4-morpholin-4-yl-6-{4-[3-(trifluoromethyl)pyridin-2-yl]piperazin-1-yl}-1,3,5-triazine]",≤ 1000 nM
4,"C[C@@H]1CN(c2ncccc2C#N)CCN1c1cc(-c2ccc(Cl)cc2)nc(N2CCOCC2)n1 [Example 482, 2-{(3R)-4-[6-(4-chlorophenyl)-2-morpholin-4-ylpyrimidin-4-yl]-3-methylpiperazin-1-yl}nicotinonitrile]",≤ 1000 nM
5,"C=CCN1CCN(c2nc(-c3ccc(F)cc3)nc(N3CCN(c4ncccc4C(F)(F)F)CC3)n2)CC1 [Example 446, 2-(4-allylpiperazin-1-yl)-4-(4-fluorophenyl)-6-{4-[3-(trifluoromethyl)pyridin-2-yl]piperazin-1-yl}-1,3,5-triazine]",≤ 1000 nM

# Same assay, conditions: Table II; IC50 determined as described in Example 6 (antagonist activity, calcium mobilization)
row,Compound,IC50
1,"C[C@@H]1CN(c2nccnc2Cl)CCN1c1cc(-c2ccc(F)c(Cl)c2)nc(N2CCC[C@@H]2C)n1 [Example 986, 4-(3-chloro-4-fluorophenyl)-6-[(2R)-4-(3-chloropyrazin-2-yl)-2-methylpiperazin-1-yl]-2-[(2S)-2-methylpyrrolidin-1-yl]pyrimidine]",≤ 1000 nM

# Same assay, conditions: Table II; determined as described in Example 6 (antagonist activity); "*" = 1 micromolar or less
row,Compound,IC50
1,"[O-][n+]1ccc(-c2nc(-c3ccc(F)c(Cl)c3)cc(N3CCN(c4ncccc4C(F)(F)F)CC3)n2)cc1 [Example 813, 4-(3-chloro-4-fluorophenyl)-2-(1-oxidopyridin-4-yl)-6-{4-[3-(trifluoromethyl)pyridin-2-yl]piperazin-1-nlyl}pyrimidine]",≤ 1000 nM
2,"CCOC(=O)c1ccc(-c2cc(N3CCN(c4ncccc4Cl)C[C@H]3C)nc(N3CCCC3C)n2)cc1 (stereo in doubt) [Example 867, ethyl 4-[6-[4-(3-chloropyridin-2-yl)-2-methylpiperazin-1-yl]-2-(2-methylpyrrolidin-1-yl)pyrimidin-4-yl]benzoate]",≤ 1000 nM
3,"CC1CCCN1c1nc(-c2cncc(C#N)c2)cc(N2CCN(c3ncccc3Cl)C[C@H]2C)n1 (stereo partly shown) [Example 880, 5-[6-[4-(3-chloropyridin-2-yl)-2-methylpiperazin-1-yl]-2-(2-methylpyrrolidin-1-yl)pyrimidin-4-yl]nicotinonitrile]",≤ 1000 nM
4,CC1CCCN1c1cc(-c2ccc(F)c(Cl)c2)nc(N2CCN(c3nccnc3Cl)C[C@H]2C)n1 (stereo partly shown) [Example 911],≤ 1000 nM
5,"C[C@H]1CN(c2nccnc2Cl)CCN1c1cc(-c2ccc(Cl)c(F)c2)nc(N2CCOCC2)n1 [Example 962, 4-{4-(4-chloro-3-fluorophenyl)-6-[(2S)-4-(3-chloropyrazin-2-yl)-2-methylpiperazin-1-yl]pyrimidin-2-yl}morpholine]",≤ 1000 nM
6,"CCCN1C[C@H]2C[C@@H]1CN2c1nc(-c2ccc(F)c(Cl)c2)cc(N2CCN(c3ncccc3C(F)(F)F)CC2)n1 [Example 777, (1R,4R)-2-(4-(3-chloro-4-fluorophenyl)-6-{4-[3-(trifluoromethyl)pyridin-2-yl]piperazin-1-yl}pyrimidin-2-yl)-5-propyl-2,5-diazabicyclo[2.2.1]heptane]",≤ 1000 nM
7,"C[C@@H]1CN(c2ncccc2Cl)CCN1c1cc(-c2ccc(C#N)cc2)nc(N2CCCC2)n1 [Example 860, 4-{6-[(2R)-4-(3-chloropyridin-2-yl)-2-methylpiperazin-1-yl]-2-pyrrolidin-1-ylpyrimidin-4-yl}benzonitrite]",≤ 1000 nM
8,"Cc1cc(-c2cc(N3CCN(c4nccnc4Cl)C[C@H]3C)nc(N3CCCC3C)n2)ccc1F (stereo in doubt) [Example 915, 4-[4-(3-chloropyrazin-2-yl)-2-methylpiperazin-1-yl]-6-(4-fluoro-3-methylphenyl)-2-(2-methylpyrrolidin-1-yl)pyrimidine]",≤ 1000 nM
9,"C[C@@H]1CN(c2ncccc2Cl)CCN1c1cc(-c2cccc(C#N)c2)nc(N2CCOCC2)n1 (stereo in doubt) [Example 870, 3-{6-[4-(3-chloropyridin-2-yl)-2-methylpiperazin-1-yl]-2-morpholin-4-ylpyrimidin-4-yl}benzonitrile]",≤ 1000 nM
10,"CC1CCCN1c1nc(-c2ccc(C#N)cc2)cc(N2CCN(c3ncccc3Cl)C[C@H]2C)n1 (stereo partly shown) [Example 859, 4-[6-[4-(3-chloropyridin-2-yl)-2-methylpiperazin-1-yl]-2-(2-methylpyrrolidin-1-yl)pyrimidin-4-yl]benzonitrile]",≤ 1000 nM
11,"C[C@@H]1CN(c2ncccc2Cl)CCN1c1cc(-c2ccc(Cl)c(F)c2)nc(N2CCC[C@H]2C)n1 [Example 934, 4-(4-chloro-3-fluorophenyl)-6-[(2R)-4-(3-chloropyridin-2-yl)-2-methylpiperazin-1-yl]-2-[(2R)-2-methylpyrrolidin-1-yl]pyrimidine]",≤ 1000 nM
12,"CCCN1CCN(c2nc(-c3ccc(F)c(C)c3)cc(N3CCN(c4ncccc4C(F)(F)F)C[C@H]3C)n2)CC1 [Example 787, 4-(4-fluoro-3-methylphenyl)-6-{(2R)-2-methyl-4-[3-(trifluoromethyl)pyridin-2-yl]piperazin-1-yl}-2-(4-propylpiperazin-1-yl)pyrimidine]",≤ 1000 nM

# Same assay, conditions: Table II; determined as described in Example 6; class symbol
row,Compound,IC50
1,"Cc1ccc(-c2nc(N3CCOCC3)nc(N3CCN(c4ccccn4)CC3)n2)c2ccccc12 [Example 276, 2-(4-methyl-1-naphthyl)-4-morpholin-4-yl-6-(4-pyridin-2-ylpiperazin-1-yl)-1,3,5-triazine]",≤ 1000 nM

# Same assay, conditions: determined as described in Example 6 (calcium mobilization, antagonist activity); Table II
row,Compound,IC50
1,"CC1CCCN1c1nc(-c2ccc(F)c(F)c2)cc(N2CCN(c3ncccc3Cl)C[C@H]2C)n1 (stereo partly drawn) [Example 768, 4-[(2R)-4-(3-chloropyridin-2-yl)-2-methylpiperazin-1-yl]-6-(3,4-difluorophenyl)-2-(2-methylpyrrolidin-1-yl)pyrimidine]",≤ 1000 nM
2,"Cc1cncc(-c2cc(N3CCN(c4ncccc4C(F)(F)F)CC3)nc(N3CCOCC3)n2)c1 [Example 631, 4-(4-(5-methylpyridin-3-yl)-6-{4-[3-(trifluoromethyl)pyridin-2-yl]piperazin-1-yl}pyrimidin-2-yl)morpholine]",≤ 1000 nM
3,"CC1CCCN1c1nc(-c2ccc(F)c(Cl)c2)cc(N2CCN(c3ncccc3F)CC2)n1 (stereo not shown) [Example 707, 4-(3-chloro-4-fluorophenyl)-6-(4-(3-fluoropyridin-2-yl)piperazin-1-yl]-2-(2-methylpyrrolidin-1-yl)pyrimidine]",≤ 1000 nM
4,"Cc1cc(-c2cc(N3CCN(c4ncccc4C)CC3)nc(N3CCCC3C)n2)ccc1F (stereo not shown) [Example 696, 4-(4-fluoro-3-methylphenyl)-6-[4-(3-methylpyridin-2-yl)piperazin-1-yl]-2-(2-methylpyrrolidin-1-yl)pyrimidine]",≤ 1000 nM
5,"COC[C@@H]1CCCN1c1nc(-c2ccc(F)c(Cl)c2)cc(N2CCN(c3ncccc3Cl)C[C@H]2C)n1 [Example 735, 4-(3-chloro-4-fluorophenyl)-6-[(2R)-4-(3-chloropyridin-2-yl)-2-methylpiperazin-1-yl]-2-[(2S)-2-(methoxymethyl)pyrrolidin-1-yl]pyrimidine]",≤ 1000 nM
6,"Cc1cc(-c2cc(N3CCN(c4ncccc4C(F)(F)F)CC3)nc(N(CCO)C(C)C)n2)ccc1F [Example 687, 2-[(4-(4-fluoro-3-methylphenyl)-6-{4-[3-(trifluoromethyl)pyridin-2-yl]piperazin-1-yl}pyrimidin-2-yl)(isopropyl)amino]ethanol]",≤ 1000 nM
7,"C[C@@H]1CN(c2ncccc2Cl)CCN1c1cc(-c2ccc(F)c(Cl)c2)nc(N2CCCC2)n1 [Example 731, 4-(3-chloro-4-fluorophenyl)-6-[(2R)-4-(3-chloropyridin-2-yl)-2-methylpiperazin-1-yl]-2-pyrrolidin-1-ylpyrimidine]",≤ 1000 nM
8,"O=C1NCC2(CCN(c3nc(-c4ccc(F)c(Cl)c4)cc(N4CCN(c5ncccc5C(F)(F)F)CC4)n3)CC2)O1 [Example 581, 8-(4-(3-chloro-4-fluorophenyl)-6-{4-[3-(trifluoromethyl)pyridin-2-yl]piperazin-1-yl}pyrimidin-2-yl)-1-oxa-3,8-diazaspiro[4.5]decan-2-one]",≤ 1000 nM
9,"Fc1ccc(-c2cc(N3CCN(c4ncccc4C(F)(F)F)CC3)nc(NC3CCCC3)n2)cc1Cl [Example 693, 4-(3-chloro-4-fluorophenyl)-N-cyclopentyl-6-{4-[3-(trifluoromethyl)pyridin-2-yl]piperazin-1-yl}pyrimidin-2-amine]",≤ 1000 nM
10,"Cc1cccnc1N1CCN(c2cc(-c3ccc(F)c(Cl)c3)nc(N3CCOCC3)n2)CC1C (stereo not shown) [Example 646, 4-{4-(3-chloro-4-fluorophenyi)-6-[3-methyl-4-(3-methylpyridin-2-yl)piperazin-1-yl]pyrimidin-2-yl}morpholine]",≤ 1000 nM
11,"CCN(CC)c1nc(-c2ccc(F)c(F)c2)cc(N2CCN(c3ncccc3C(F)(F)F)CC2)n1 [Example 596, 4-(3,4-difluorophenyl)-N,N-diethyl-6-{4-[3-(trifluoromethyl)pyridin-2-yl]piperazin-1-yl}pyrimidin-2-amine]",≤ 1000 nM
12,"Cc1cc(-c2cc(N3CCN(c4ncccc4Cl)CC3)nc(N(C)C(C)C)n2)ccc1F [Example 730, 4-[4-(3-chloropyridin-2-yl)piperazin-1-yl]-6-(4-fluoro-3-methylphenyl)-N-isopropyl-N-methylpyrimidin-2-amine]",≤ 1000 nM
